# Where two headings read alike, the source gives them in different places.
# Legend:
# S. aureus SMITH = assay: MIC, panel of quinolone-resistant strains (CLSI); type: cell-based; conditions: Staphylococcus aureus; CIP R
# A. baumannii A472 = assay: MIC determination for Acinetobacter strains (Example 3); type: cell-based; conditions: LEV R, CIP R, MRP I, IMP I, AMK R, TET R
# A. baumannii A489 = assay: as above; type: cell-based; conditions: LEV R, CIP R, MRP R, IMP R, AMK R, TET R
# E. coli 25922 = assay: MIC, standard panel of Gram-positive and Gram-negative bacteria (CLSI); type: cell-based, Escherichia coli; conditions: Escherichia coli, 25922; CAMHB; read-out: MIC E. coli 25922
# S. epidermis 12228 = assay: as above; type: cell-based, Staphylococcus epidermis; conditions: Staphylococcus, 12228; CAMHB; read-out: MIC S. epidermis 12228
# A. baumannii ATCC 19606 = assay: MIC without and with sub-inhibitory polymyxin B (Example 4); type: cell-based, Acinetobacter baumannii; conditions: Acinetobacter baumannii, ATCC19606, A. baumannii ATCC 19606; without polymyxin B; 2nd experiment; visual reading; read-out: MIC without PB
# S. aureus 25923 = assay: MIC, standard panel of Gram-positive and Gram-negative bacteria (CLSI); type: cell-based, Staphylococcus aureus; conditions: Staphylococcus aureus, 25923; CAMHB; read-out: MIC S. aureus 25923
# B. thailandensis = assay: microbe, parasite or virus in culture; type: cell-based, Burkholderia thailandensis; conditions: Burkholderia thailandensis, read-out: MIC90 B. thailandensis
# A. Baumanii OXA-51 = assay: MIC, panel of quinolone-resistant strains (CLSI); type: cell-based; conditions: Acinetobacter baumannii; CIP R, ESBL
# P. aeruginosa 27853 = assay: MIC, standard panel of Gram-positive and Gram-negative bacteria (CLSI); type: cell-based, Pseudomonas aeruginosa; conditions: Pseudomonas aeruginosa, 27853; CAMHB; read-out: MIC P. aeruginosa 27853
# A. baumannii A473 = assay: MIC determination for Acinetobacter strains (Example 3); type: cell-based; conditions: LEV R, CIP R, MRP R, IMP R, AMK R, TET R
# A. baumannii A387 [1] = assay: as above; type: cell-based; conditions: LEV I, CIP R, IPM R, AMK R, TET R
# A. baumannii J2 = assay: as above; type: cell-based; conditions: LEV R, CIP R
# E. coli IMP = assay: microbe, parasite or virus in culture; conditions: Escherichia coli, read-out: MIC E. coli IMP
# A. baumannii A387 [2] = assay: MIC without and with sub-inhibitory polymyxin B (Example 4); type: cell-based, Acinetobacter baumannii; conditions: Acinetobacter baumannii, A387, A. baumannii A387, without polymyxin B, read-out: MIC without PB
# A. baumannii A390 [3] = assay: as above; type: cell-based, Acinetobacter baumannii; conditions: Acinetobacter baumannii, A390, A. baumannii A390; without polymyxin B; 1st experiment; read-out: MIC without PB
# A. baumannii A390 [4] = assay: MIC determination for Acinetobacter strains (Example 3); type: cell-based; conditions: LEV R, CIP R, MRP R, IPM I, AMK R, TET I
# [5] = system: 11 strains of A. baumannii and one strain of Acinetobacter sp.; assay: Preliminary MBC without and with sub-inhibitory polymyxin B, whole panel (Example 4; also strains not listed separately); type: cell-based; conditions: Acinetobacter baumannii, read-out: MBC without PB
# [6] = system: Acinetobacter sp. (H064200250); assay: MIC without and with sub-inhibitory polymyxin B (Example 4); type: cell-based; conditions: Acinetobacter
# A. baumannii A387 [7] = assay: Preliminary MBC without and with sub-inhibitory polymyxin B (Example 4); type: cell-based, Acinetobacter baumannii; conditions: Acinetobacter baumannii, A387, A. baumannii A387, without polymyxin B, 2nd experiment, read-out: MBC without PB
smiles,measurement,setting,value
"Cc1c(-c2cc(F)c(N)cc2F)ccn2c(=O)c(C(=O)O)cc(C3CC3)c12 [Compound 2, 8-(3,6-difluoro-4-amino-phenyl)-1-cyclopropyl-9-methyl-4-oxo-quinolizine-3-carboxylic acid]",MIC,S. aureus SMITH,< 0.03 µg/mL
same,MIC,A. baumannii A472,4 µg/mL
same,MIC,A. baumannii A489,2 µg/mL
same,MIC,E. coli 25922,< 0.03 µg/mL
same,MIC,S. epidermis 12228,< 0.008 µg/mL
same,MIC,A. baumannii ATCC 19606,0.125 µg/mL
same,MIC,S. aureus 25923,< 0.008 µg/mL
same,MIC90,B. thailandensis,< 0.048 µg/mL
same,MIC,A. Baumanii OXA-51,4 µg/mL
same,MIC,P. aeruginosa 27853,2 µg/mL
same,MIC,A. baumannii A473,8 µg/mL
same,MIC,A. baumannii A387 [1],0.5 µg/mL
same,MIC,A. baumannii J2,4 µg/mL
same,MIC,E. coli IMP,< 0.008 µg/mL
same,MIC,A. baumannii A387 [2]; 1st experiment,0.5 µg/mL
same,MIC,"A. baumannii A387 [2]; 2nd experiment, visual reading",1 µg/mL
same,MIC,A. baumannii A390 [3],8 µg/mL
same,MIC,A. baumannii A390 [4],8 µg/mL
same,MBC,"[5]; A. baumannii A14, without polymyxin B, 1st experiment",16 µg/mL
same,MBC,"[5]; A. baumannii A14, without polymyxin B, 2nd experiment",16 µg/mL
same,MBC,"[5]; NCTC13301, A. baumannii NCTC 13301, without polymyxin B, 1st experiment",8 µg/mL
same,MBC,"[5]; NCTC13301, A. baumannii NCTC 13301, without polymyxin B, 2nd experiment",32 µg/mL
same,MIC,"[6]; Acinetobacter spp. H064200250 (OXA51), without polymyxin B, 2nd experiment, visual reading, read-out: MIC without PB",4 µg/mL
same,MIC,"[6]; Acinetobacter spp. H064200250, without polymyxin B, 1st experiment, read-out: MIC without PB",4 µg/mL
same,MIC,"[6]; read-out: MIC +[…] PB, read with alamar blue, Acinetobacter spp. H064200250 (OXA51), +[…] polymyxin B, 2nd experiment, MIC read with alamar blue",0.06 µg/mL
same,MBC,A. baumannii A387 [7],1 µg/mL

# From US10155021B2, “Antimicrobial 4-oxoquinolizines” (Emergent Product Development Gaithersburg Inc., priority 2011, dated 2018)
